Reference: ChEMBL document CHEMBL1201862, “PubChem BioAssay data set” (2004)
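A five-concentration, 48-hour dose response in 96-well plates underlies each endpoint, interpolated linearly between surrounding concentrations. Here, GI50 denotes the concentration required for 50% inhibition of growth.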 Active and inactive are the calls of the source. Rule as the data show it: active = GI50 up to about 1.1 µM and inactive = higher.

Legend:
Assay in all cases: growth of human tumour cells (NCI), 48 h
[1] = test system: K562
[2] = test system: CCRF-CEM
[3] = test system: IGROV-1
[4] = test system: SK-MEL-5
[5] = test system: OVCAR-8
[6] = test system: SF-295
[7] = test system: LOX IMVI
[8] = test system: ACHN
[9] = test system: RXF 393
[10] = test system: UACC-62
[11] = test system: KM12
[12] = test system: SW-620
[13] = test system: RPMI-8226
[14] = test system: M14
[15] = test system: OVCAR-4
[16] = test system: SR

Measured: GI50

Cc1nc(-n2nc(-c3ccccc3)cc2-c2ccccc2)sc1C(=O)/C=C/c1ccc(Cl)cc1
inactive: [1] > 10 µM | [2] 17.3 µM | [3] 27.7 µM | [4] 13.2 µM | [5] 24.8 µM | [6] 15.3 µM | [7] 13.9 µM | [8] 20.7 µM | [9] 12.7 µM | [10] 14.1 µM | [11] 11.7 µM | [12] 21.5 µM | [13] 5.66 µM

CCCCCC1CC=CC(NC(=O)OCc2ccccc2)C1/C=C/CCCC1OCCO1 (centres undefined)
inactive: [1] 24.9 µM | [2] 47.5 µM | [3] > 100 µM | [4] 17.9 µM | [5] 73.6 µM | [6] 66.5 µM | [7] 57.7 µM | [14] > 100 µM | [8] 24.1 µM | [9] 15.1 µM | [10] > 93.5 µM | [11] 48 µM | [12] > 100 µM | [13] 17.9 µM | [15] > 72.9 µM

C/C(=N\NC(=O)c1ccccc1O)C1=CNc2ccccc2S1
inactive: [1] 3.75 µM | [2] 3.35 µM | [3] 5.92 µM | [4] 6.89 µM | [5] 3.7 µM | [6] 4.01 µM | [16] 3.82 µM | [7] 3.3 µM | [14] 6.65 µM | [8] 4.56 µM | [10] 2.44 µM | [11] 3.94 µM | [12] 3.65 µM | [13] 4.9 µM | [15] 5.85 µM

CN(C)C(=N)NC(N)=S
inactive: [1] > 100 µM | [3] > 100 µM | [5] > 100 µM | [6] > 100 µM | [16] > 100 µM | [7] > 100 µM | [14] > 100 µM | [8] > 100 µM | [9] > 100 µM | [10] > 100 µM | [11] > 100 µM | [12] > 100 µM | [13] > 100 µM | [15] > 100 µM

COc1ccc(N2C(=O)c3c(c4[nH]c5ccccc5c4c4ccc(C(C)(C)C)cc34)C2=O)cc1
inactive: [1] > 100 µM | [2] 21.3 µM | [3] > 100 µM | [4] > 100 µM | [5] 22.5 µM | [6] 31.8 µM | [16] 21.2 µM | [7] > 100 µM | [14] 40.3 µM | [8] 46.3 µM | [9] 45.7 µM | [10] 20.1 µM | [11] 64.9 µM | [12] 61.8 µM | [15] 20.3 µM

CCOc1ccccc1NC(=O)CCc1n[nH]c(=S)o1
inactive: [1] > 100 µM | [2] > 100 µM | [3] > 10 µM | [4] > 100 µM | [6] > 100 µM | [16] > 100 µM | [7] > 100 µM | [14] > 100 µM | [8] > 100 µM | [10] > 100 µM | [11] > 100 µM | [12] > 100 µM | [13] > 100 µM

Cc1cccc(-c2nnc(S)[nH]2)c1
inactive: [1] > 100 µM | [2] > 100 µM | [3] > 100 µM | [4] > 100 µM | [5] > 100 µM | [6] > 100 µM | [16] > 100 µM | [14] > 100 µM | [8] > 100 µM | [10] > 100 µM | [11] > 100 µM | [12] > 100 µM | [13] > 100 µM | [15] > 100 µM

O=c1[nH]c2c(nc1NC13CC4CC(CC(C4)C1)C3)c(=O)oc1ccccc12
inactive: [1] > 100 µM | [2] > 100 µM | [3] > 100 µM | [4] 36.9 µM | [5] 32 µM | [16] > 100 µM | [7] 31.6 µM | [14] 34.3 µM | [8] > 100 µM | [9] 46.1 µM | [10] > 100 µM | [11] > 100 µM | [12] > 100 µM | [13] > 100 µM

C=CCOC1=C2CC[C@H](O)[C@@]2(C)CCC1=O
inactive: [2] > 100 µM | [3] > 100 µM | [4] > 100 µM | [5] > 100 µM | [6] > 100 µM | [16] > 100 µM | [7] > 100 µM | [14] > 100 µM | [8] > 100 µM | [9] > 100 µM | [10] > 100 µM | [11] > 100 µM | [12] > 100 µM | [13] > 100 µM | [15] > 100 µM

O=S1(=O)c2ccccc2N=C(c2ccccc2Cl)CC1c1ccc(F)cc1 (centres undefined)
inactive: [1] 7.62 µM | [2] 14.1 µM | [3] 17.4 µM | [4] 16.5 µM | [5] 21.5 µM | [6] 18.2 µM | [7] 16.7 µM | [14] 19 µM | [8] 18.4 µM | [9] 6.68 µM | [10] 15.8 µM | [11] 16.5 µM | [12] 13.4 µM | [13] 3.4 µM | [15] 18.4 µM

CC(=O)OCC1OC(n2c(=S)n(-c3ccccc3)c(=O)c3cc(Br)ccc32)C(OC(C)=O)C(OC(C)=O)C1OC(C)=O (centres undefined)
inactive: [1] > 100 µM | [2] > 100 µM | [3] > 100 µM | [4] > 100 µM | [5] > 100 µM | [7] > 100 µM | [14] > 100 µM | [8] > 100 µM | [10] > 100 µM | [11] > 100 µM | [12] > 100 µM | [13] > 100 µM

Cc1noc(C)c1C1=CCCCc2ccccc21
inactive: [1] 31.4 µM | [2] 78.9 µM | [3] > 100 µM | [4] 34.1 µM | [5] > 100 µM | [6] > 100 µM | [16] 16.6 µM | [14] 79.6 µM | [8] 87.9 µM | [9] 72.8 µM | [10] 64.3 µM | [11] > 100 µM | [12] > 100 µM | [13] 25.9 µM | [15] > 100 µM

CC1=Nn2c(nnc2-c2ccccc2Cl)NC(C)(C)C1
inactive: [1] 42.9 µM | [2] 34.2 µM | [3] > 100 µM | [4] > 100 µM | [5] > 100 µM | [6] > 100 µM | [16] 25.5 µM | [7] > 100 µM | [14] > 100 µM | [8] > 100 µM | [10] > 100 µM | [11] > 100 µM | [12] 6.25 µM | [13] 26.1 µM | [15] > 100 µM

C=CC/C=C/C/C=C/CCCCCCCc1cccc(O)c1C(=O)O
inactive: [1] 33.3 µM | [2] 30.3 µM | [3] 33.6 µM | [5] > 100 µM | [6] > 100 µM | [16] > 100 µM | [7] 44.7 µM | [14] 82.8 µM | [8] 44.2 µM | [10] 31.1 µM | [11] 64 µM | [12] 45.9 µM | [13] 40.2 µM | [15] 42.2 µM
